From US20260092054A1, “FUSED RING COMPOUND AND PHARMACEUTICAL CONTAINING SAME” (KAKEN PHARMACEUTICAL CO., LTD., priority 2022, published 2026)

Columns and labels:
human STAT6 = assay: Human STAT6 dependent reporter activity (IL-4 stimulated STAT6 reporter assay using STAT6-HEK293 cells); assay type: cell-based; settings: Homo sapiens, IL-4 stimulation, luciferase activity, read-out: Inhibition rate (%); for inhibition at 0.1 µM: compound 0.1 μmol/L; for inhibition at 1 µM: compound 1 μmol/L
Protocol: Test Example 2: Measurement of Human STAT6 Dependent Reporter Activity
1) Construction of Human STAT6-HEK293 Cells
HEK 293 cells maintenance cultured by [Penicillin-Streptomycin (Thermo Fisher Scientific) and FBS, 1 vol % and 10 vol % respectively added to DMEM high glucose (Thermo Fisher Scientific)](manufactured by ATCC) were collected, and suspended in 10 mL of 0.5% BSA/PBS. 1×10^6 cells were collected, the supernatant was removed by centrifuging, and the cells were suspended in 100 μL of Nucleofector solution V (manufactured by Lonza K.K.). 2 μg of STAT6 vector [plasmid DNAs incorporating human STAT6 sequences in pcDNA3.1 (Invitrogen)] was added, and the STAT6 vector was introduced into the HEK293 cells using the program Q-001 initially registered in the Nucleofector®2b. A cell line (STAT6-HEK293 cells) consistently expressing STAT6 was acquired by selecting resistant cells in a medium containing Geneticin® (manufactured by Thermo Fisher Scientific). 2) STAT6 reporter assay using STAT6-HEK293 cells 3×10^6 STAT6-HEK293 cells maintained in assay medium [culture medium supplemented with 1 vol % Geneticin®] were harvested and seeded in a 10 cm dish. 3 μg of a STAT6 reporter vector [plasmid in which a sequence containing a STAT6 binding sequence and a C/EBP binding sequence in tandem was incorporated into pGL4.27 (manufactured by Promega Corporation)] and 9 μL of FuGENE® HD transfection reagent (manufactured by Promega Corporation) were added to 500 μL of Opti-MEM® (manufactured by Thermo Fisher Scientific) to prepare transfection solutions. The transfection solution was vortexed and left to stand for about 5 minutes, then added dropwise to the STAT6-HEK293 cells, which were then cultured overnight in a C02 incubator to produce STAT6 reporter cells.
The prepared STAT6 reporter cells were seeded on B&W isoplate-96 TC (PerkinElmer Japan Co., Ltd.) (3×10^4 cells/50 μL/well) and cultured overnight in a C02 incubator (37° C., 5% C02). 50 μL of assay medium was added to each well instead of the STAT6 reporter cells. The compound addition solution was prepared by diluting the DMSO solution of the example compound 250-fold using the assay medium. 20 μL of compound addition solution or 0.4 vol % DMSO-containing assay medium was added to the plate, and the plate was then cultured in a CO2 incubator for 1 hour. 10 μL of 80 ng/mL human IL-4 solution (Peprotech) or assay medium was added to each well, and the cells were cultured in a CO2 incubator for 6 hours.
STAT6 reporter activity was measured using the Bright-Glo® Luciferase Assay System (Promega). 100 μL of Bright-Glo® reagent was added to each well, and luciferase activity was measured using Infinite® F500. The inhibition rate of each Example compound was calculated by the following formula using the luciferase activity value (G) when no Example compound was added and stimulation with IL-4 was performed, the luciferase activity value (H) when no Example compound was added and stimulation with IL-4 was not performed, and the luciferase activity value (I) when each Example compound was treated and stimulation with IL-4 was performed.
Note that the viable cell rate under each condition was 70% or more, and it was determined that the luciferase activity inhibitory activity of each example compound was appropriately evaluated.

human STAT6/pIL-4Rα = target: T1, human STAT6/pIL-4Rα (Homo sapiens, UniProt P42226); assay: Binding inhibitory activity between human STAT6/pIL-4Rα by fluorescence polarization method; settings: rhSTAT6 (123-658) / FAM-pIL-4Rα peptide
T1 construct: histidine tag
T1 sequence (P42226 123-658): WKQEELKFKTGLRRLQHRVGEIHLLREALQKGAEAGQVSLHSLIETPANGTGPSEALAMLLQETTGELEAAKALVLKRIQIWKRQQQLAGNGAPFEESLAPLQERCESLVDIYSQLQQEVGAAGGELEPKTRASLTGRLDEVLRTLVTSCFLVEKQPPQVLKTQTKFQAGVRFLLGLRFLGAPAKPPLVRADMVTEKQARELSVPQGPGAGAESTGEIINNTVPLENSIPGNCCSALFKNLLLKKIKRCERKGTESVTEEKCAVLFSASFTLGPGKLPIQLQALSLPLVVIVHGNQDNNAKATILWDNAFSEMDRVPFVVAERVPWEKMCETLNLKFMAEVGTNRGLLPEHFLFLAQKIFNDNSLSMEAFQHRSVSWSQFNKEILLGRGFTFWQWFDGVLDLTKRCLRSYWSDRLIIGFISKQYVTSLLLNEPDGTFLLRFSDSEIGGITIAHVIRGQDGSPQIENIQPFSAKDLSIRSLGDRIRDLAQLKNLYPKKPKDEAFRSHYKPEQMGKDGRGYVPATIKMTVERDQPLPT
Protocol: Test Example 1: Measurement of Binding Inhibitory Activity Between Human STAT6/pIL-p 4Rα by Fluorescence Polarization Method
1) Construction of Histidine Tag-Fused Recombinant Human STAT6 (123 to 658 Region)
A histidine tag-fused recombinant human STAT6 (hereinafter referred to as rhSTAT6) expression vector [plasmid DNA in which a nucleic acid sequence containing human STAT6 (123-658 region) was inserted into a pET28a(+) vector (Novagen)] was inserted into E. coli, and the cells were cultured overnight under culturing conditions at 17° C. with IPTG treatment. After disrupting E. coli with a high-pressure homogenizer (EmulsiFlex-C3, manufactured by AVESTIN, Inc.), affinity purification using Ni-NTA agarose (manufactured by Qiagen), cation exchange chromatography using HiTrap® CM-FF (manufactured by GE healthcare), and gel filtration chromatography using Superdex® 200 10/300GL (manufactured by GE healthcare) were performed to obtain rhSTAT6.
2) Measurement of Binding Inhibitory Activity Between Human STAT6/pIL-4Rα by Fluorescence Polarization Method
A DMSO solution of the example compound was diluted with an assay buffer [for example, a buffer containing 50 mmol/L NaCl, 10 mmol/L HEPES (pH 7.0), 1 mmol/L DTT, 1 mmol/L EDTA, and 0.01 vol % NP-40, and the like] to prepare a compound-added solution. The DMSO concentration in the compound addition solution was adjusted to 1 or 2 vol %. 10 μL of the compound addition solution and an assay buffer containing 1 or 2 vol % DMSO were added to each well of a 384-well plate. 5 μL of an assay buffer solution containing rhSTAT6 (rhSTAT6 concentration: for example, 1 μmol/L) or an assay buffer was added to each well of a 384-well plate. After leaving the plate at room temperature for 30 minutes in the dark, 5 μL of an assay buffer solution (FAM-pIL-4Rp concentration: for example, 80 nmol/L) containing FAM-labeled phosphorylated IL-4Rα peptide (sequence: FAM-Ala-pTyr-Lys-Pro-Phe-Gln-Asp-Leu-IIe-NH2) (hereinafter, FAM-pIL-4Rp) or an assay buffer containing 2 vol % DMSO was added to each well of the 384-well plate. The mixture was left to stand at room temperature for 30 minutes in the dark, and then centrifuged (200 g, 1 minute, room temperature). Fluorescence polarization values were measured using Infinite (registered trademark) F500 (manufactured by Tecan Japan Co., Ltd.) (Excitation: 485 nm, Emission: 535 nm). The inhibition rate of each Example compound was calculated according to the following formula using the fluorescence polarization value (A) when rhSTAT6 and FAM-pIL-4Rp were added without adding the Example compound, the fluorescence polarization value (B) when FAM-pIL-4Rp was added without adding the Example compound and rhSTAT6, and the fluorescence polarization value (C) when each Example compound, rhSTAT6, and FAM-pIL-4Rp were added.
In the evaluation of each example compound, the 50% inhibitory concentration (IC50) of each example compound was calculated from a linear function equation of a straight line connecting two points sandwiching 50%.

IC50 (human STAT6/pIL-4Rα)	Compound	inhibition at 0.1 µM (human STAT6)	inhibition at 1 µM (human STAT6)
380 nM	CCc1nn(C)c(=O)n1-c1ccc(-c2cc3cc(C(F)(F)F)cc(C(=O)Nc4ccc(F)c(C(N)=O)c4)c3n2CC)cc1 [Ex. 155]	69%	100%
430 nM	CCn1c(-c2ccc(-n3c(C)nn(C)c3=O)cc2)cc2cncc(C(=O)Nc3ccc(F)c(C(N)=O)c3)c21 [Ex. 216]	7%	42%
240 nM	Cc1nn(C)c(=O)n1-c1ccc(-c2cc3cc(C(F)(F)F)cc(C(=O)Nc4cccc(C(N)=O)c4)c3n2CC2(C#N)CC2)cc1 [Ex. 126]	62%	–
330 nM	CCn1c(-c2ccc(C(=O)N(C)C)cc2)cc2ccnc(C(=O)Nc3ccc(F)c(C(=O)NCC#N)c3)c21 [Ex. 148]	86%	–
280 nM	Cc1nn(C)c(=O)n1-c1ccc(-c2cc3cc(C(F)(F)F)nc(C(=O)Nc4cccc(C(N)=O)c4)c3n2C)cc1 [Ex. 93]	67%	96%
340 nM	COCCn1c(-c2ccc(-n3c(C)nn(C)c3=O)cc2)cc2cc(C(F)(F)F)cc(C(=O)Nc3cccc(OC)n3)c21 [Ex. 78]	89%	100%
330 nM	CCn1c(-c2ccc(-n3c(C)nn(C)c3=O)cc2)cc2ccnc(C(=O)Nc3cccc(C(=O)Nc4cccn(C(F)F)c4=O)c3)c21 [Ex. 186]	43%	96%
250 nM	CCn1c(-c2ccc(-n3c(C)nn(C)c3=O)cc2)cc2cc(C(F)(F)F)cc(C(=O)Nc3cccc(C(N)=O)c3)c21 [Ex. 37]	96%	100%
1970 nM	COCCn1c(-c2ccc(-n3c(C)nn(C)c3=O)cc2)cc2ccnc(C(=O)Nc3cccc(C(N)=O)c3)c21 [Ex. 106]	–	–
840 nM	COCCn1c(-c2ccc3c(c2)CCOC3C(=O)O)nc2cc(C(F)(F)F)cc(C(=O)Nc3cccc(C(N)=O)c3)c21 (stereo not shown) [Ex. 29]	–	–
590 nM	COCCn1c(-c2ccc(-n3c(C)nn(C)c3=O)cc2)cc2cc(C(F)(F)F)cc(C(=O)Nc3cccc(NS(C)(=O)=O)n3)c21 [Ex. 217]	–	–
910 nM	CCn1c(-c2ccc(-n3cnn(C)c3=O)cc2)c(Cl)c2cc(C(F)(F)F)cc(C(=O)Nc3cccc(C(N)=O)c3)c21 [Ex. 141]	–	–
730 nM	CCn1c(-c2ccc(-n3c(C)nn(C)c3=O)cc2)cc2cc(C(F)(F)F)cc(C(=O)Nc3ccc(CC(=O)NC)cc3)c21 [Ex. 104]	–	–
4980 nM	COCCn1c(-c2ccc(N(C)C(C)=O)cc2)nc2cc(CC(C)C)cc(C(=O)Nc3cccc(C(N)=O)c3)c21 [Ex. 211]	–	–
2070 nM	CCn1c(-c2ccc(-n3c(C)nn(C)c3=O)cc2)cc2cc(C(F)(F)F)cc(C(=O)Nc3ccc(CNC(C)=O)cc3)c21 [Ex. 116]	–	–
2950 nM	C=Cc1cc(C(=O)Nc2cccc(C(N)=O)c2)c2c(c1)nc(-c1ccc(N(C)C(C)=O)cc1)n2CCOC [Ex. 207]	–	–
470 nM	CCn1c(-c2ccc(-n3c(C)nn(C)c3=O)cc2)cc2cc(F)cc(C(=O)Nc3cccc(C(N)=O)c3F)c21 [Ex. 60]	–	–
2740 nM	COCCn1c(-c2ccc(N(C)C(C)=O)cc2)nc2cc(C(C)C)cc(C(=O)Nc3cccc(C(N)=O)c3)c21 [Ex. 210]	–	–
940 nM	Cc1nn(C)c(=O)n1-c1ccc(-c2cc3ccnc(C(=O)Nc4cccc(C(N)=O)c4F)c3n2CC2CC2)cc1 [Ex. 89]	–	–
1890 nM	CCn1c(-c2ccc(-n3c(C)nn(C)c3=O)cc2)cc2cc(C(F)(F)F)nc(C(=O)Nc3cccc(C(N)=O)c3)c21 [Ex. 96]	–	–
2280 nM	CCn1c(-c2ccc3c(c2)CCN(C(C)=O)C3)nc2cc(C(F)(F)F)cc(C(=O)Nc3cccc(C(N)=O)c3)c21 [Ex. 3]	–	–
1900 nM	COCCn1c(-c2ccc(-n3c(C)nn(C)c3=O)cc2)cc2cc(C(F)(F)F)cc(C(=O)Nc3nncs3)c21 [Ex. 79]	–	–
2660 nM	CCn1c(-c2ccc(-n3c(C)nn(C)c3=O)cc2)cc2cc(C(F)(F)F)cc(C(=O)Nc3ccc(CC(N)=O)cc3)c21 [Ex. 103]	–	–
9090 nM	CCn1c(-c2ccc(N3C(=O)C(C)CC3C)cc2)nc2cc(C(F)(F)F)cc(C(=O)Nc3cccc(C(N)=O)c3)c21 (single isomer, unassigned) [Ex. 13]	–	–
3390 nM	COCCn1c(-c2ccc(-n3c(C)nn(C)c3=O)cc2)cc2cc(C(F)(F)F)cc(C(=O)Nc3ccncc3)c21 [Ex. 54]	–	–
400 nM	COCCn1c(-c2ccc3c(c2)CCOC3C(N)=O)nc2cc(C(F)(F)F)cc(C(=O)Nc3cccc(C(N)=O)c3)c21 (stereo not shown) [Ex. 36]	–	–
2350 nM	CCCc1cc(C(=O)Nc2cccc(C(N)=O)c2)c2c(c1)nc(-c1ccc(N(C)C(C)=O)cc1)n2CCOC [Ex. 204]	–	–
6600 nM	COCCn1c(-c2ccc(N(C)C(C)=O)cc2)nc2cc(-c3ccccc3)cc(C(=O)Nc3cccc(C(N)=O)c3)c21 [Ex. 209]	–	–
550 nM	CCn1c(-c2ccc(-n3c(C)nn(C)c3=O)cc2)cc2cccc(C(=O)Nc3cccc(C(N)=O)c3F)c21 [Ex. 58]	–	–
